Laboratory results: ChEMBL document CHEMBL5260802, “Discovery of Novel Allosteric HCV NS5B Inhibitors. 2. Lactam-Containing Thiophene Carboxylates” (ACS Med Chem Lett, 2017)

How the values were obtained:
[1] = test system: Hepatitis C virus; assay: Antiviral activity against Hepatitis C virus subtype 1b infected in Huh-7 cells transfected with HCV subgenomic replicon for NS5B polymerase assessed as inhibition of viral replication measured upto 96 hrs by luciferase reporter gene assay; format: functional, organism-based, Hepacivirus hominis
[2] = test system: Hepatitis C virus; assay: Antiviral activity against Hepatitis C virus subtype 1b infected in Huh-7 cells transfected with HCV subgenomic replicon for NS5B polymerase assessed as inhibition of viral replication measured upto 96 hrs in presence of 40% of human serum by luciferase reporter gene assay; format: functional, organism-based, Hepacivirus hominis; conditions: Huh-7, 96 h
[3] = Cytotoxicity against human Huh-7 cells transfected with HCV subgenomic replicon for NS5B polymerase assessed as reduction in cell viability; format: toxicity, cell-based
[4] = Protein binding in rat plasma at 1 uM incubated for 6 hrs by LC-MS/MS based rapid equilibrium dialysis method; format: ADME, cell-free; conditions: read-out: PPB (converted)
[5] = AUC (0 to infinity) in Sprague-Dawley rat at 1 mg/kg,iv and measured after 72 hrs by LC/MS/MS analysis; format: ADME, organism-based; design: time 72 hrs, dose 1 mg/kg, route iv; conditions: Sprague-Dawley, in vivo
[6] = Unbound AUC (0 to infinity) in Sprague-Dawley rat at 1 mg/kg,iv and measured after 72 hrs by LC/MS/MS analysis; format: ADME, organism-based; conditions: in vivo
[7] = Clearance in Sprague-Dawley rat at 1 mg/kg,iv and measured after 72 hrs by LC/MS/MS analysis; format: ADME, organism-based; conditions: in vivo
[8] = Unbound clearance in Sprague-Dawley rat at 1 mg/kg,iv and measured after 72 hrs by LC/MS/MS analysis; format: ADME, organism-based; conditions: in vivo
[9] = Half life in Sprague-Dawley rat at 1 mg/kg,iv and measured after 72 hrs by LC/MS/MS analysis; format: ADME, organism-based; conditions: in vivo
[10] = Volume of distribution at steady state in Sprague-Dawley rat at 1 mg/kg,iv and measured after 72 hrs by LC/MS/MS analysis; format: ADME, organism-based; conditions: in vivo, read-out: Vdss
[11] = AUC (0 to infinity) in Sprague-Dawley rat at 3 mg/kg,po and measured after 72 hrs by LC/MS/MS analysis; format: ADME, organism-based; design: time 72 hrs, dose 3 mg/kg, route po; conditions: in vivo
[12] = Unbound AUC (0 to infinity) in Sprague-Dawley rat at 3 mg/kg,po and measured after 72 hrs by LC/MS/MS analysis; format: ADME, organism-based; conditions: in vivo
[13] = Cmax in Sprague-Dawley rat at 3 mg/kg,po and measured after 72 hrs by LC/MS/MS analysis; format: ADME, organism-based; design: time 72 hrs, dose 3 mg/kg, route po; conditions: in vivo
[14] = Oral bioavailability in Sprague-Dawley rat at 3 mg/kg and measured after 72 hrs by LC/MS/MS analysis; format: ADME, organism-based; conditions: in vivo
[15] = Half life in Sprague-Dawley rat at 3 mg/kg,po and measured after 72 hrs by LC/MS/MS analysis; format: ADME, organism-based; conditions: in vivo
[16] = Microsomal stability in rat liver microsomes assessed as parent compound remaining at 1 uM and measured after 30 mins in presence of NADPH by LC/MS/MS analysis; format: ADME, Microsome; conditions: 0.5 h
[17] = Microsomal stability in human liver microsomes assessed as parent compound remaining at 1 uM and measured after 30 mins in presence of NADPH by LC/MS/MS analysis; format: ADME, Microsome; conditions: 0.5 h
[18] = target: Cytochrome P450 3A4 (Homo sapiens, UniProt P08684); assay: Inhibition of CYP3A4 in human liver microsomes incubated for 10 mins in presence of NADPH by LC/MS/MS analysis; format: ADME, Microsome
[19] = target: Cytochrome P450 2D6 (Homo sapiens, UniProt P10635); assay: Inhibition of CYP2D6 in human liver microsomes incubated for 10 mins in presence of NADPH by LC/MS/MS analysis; format: ADME, Microsome
[20] = target: Cytochrome P450 2C9 (Homo sapiens, UniProt P11712); assay: Inhibition of CYP2C9 in human liver microsomes incubated for 10 mins in presence of NADPH by LC/MS/MS analysis; format: ADME, Microsome
[21] = target: T1, Nuclear receptor subfamily 1 group I member 2 (Homo sapiens, UniProt O75469); assay: Activation of human PXR expressed in human DPX2 co-expressing luciferase reporter gene incubated for 24 hrs by luciferase assay; format: cell-based
T1 sequence (O75469 whole entry): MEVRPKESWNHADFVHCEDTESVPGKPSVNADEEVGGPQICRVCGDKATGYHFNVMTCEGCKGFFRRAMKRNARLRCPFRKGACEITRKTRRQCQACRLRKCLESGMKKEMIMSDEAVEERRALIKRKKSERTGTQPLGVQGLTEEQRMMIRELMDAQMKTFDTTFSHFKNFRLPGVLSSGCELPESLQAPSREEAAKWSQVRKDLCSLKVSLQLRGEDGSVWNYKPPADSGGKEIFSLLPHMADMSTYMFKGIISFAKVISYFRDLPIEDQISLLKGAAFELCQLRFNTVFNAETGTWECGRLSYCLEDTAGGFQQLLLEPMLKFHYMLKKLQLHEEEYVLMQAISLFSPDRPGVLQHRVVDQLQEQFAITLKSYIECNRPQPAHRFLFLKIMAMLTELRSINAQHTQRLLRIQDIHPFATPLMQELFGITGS

[22] = target: T2, PXR (Homo sapiens, UniProt O75469); assay: Activation of human PXR expressed in human DPX2 co-expressing luciferase reporter gene assessed as maximum efficacy incubated for 24 hrs by luciferase assay relative to control; format: cell-based; conditions: DPX2 cells expressing human PXR and luciferase reporter gene
T2 sequence (O75469 whole entry): T1 sequence (O75469 whole entry)

[23] = AUC (0 to infinity) in Sinclair Lab dog at 1 mg/kg,iv and measured after 72 hrs by LC/MS/MS analysis; format: ADME, organism-based, Canis lupus familiaris; design: time 72 hrs, dose 1 mg/kg, route iv; conditions: in vivo
[24] = Unbound AUC (0 to infinity) in Sinclair Lab dog at 1 mg/kg,iv and measured after 72 hrs by LC/MS/MS analysis; format: ADME, organism-based, Canis lupus familiaris; conditions: in vivo
[25] = Clearance in Sinclair Lab dog at 1 mg/kg,iv and measured after 72 hrs by LC/MS/MS analysis; format: ADME, organism-based, Canis lupus familiaris; conditions: in vivo
[26] = Unbound clearance in Sinclair Lab dog at 1 mg/kg,iv and measured after 72 hrs by LC/MS/MS analysis; format: ADME, organism-based, Canis lupus familiaris; conditions: in vivo
[27] = Half life in Sinclair Lab dog at 1 mg/kg,iv and measured after 72 hrs by LC/MS/MS analysis; format: ADME, organism-based, Canis lupus familiaris; conditions: in vivo
[28] = Volume of distribution at steady state in Sinclair Lab dog at 1 mg/kg,iv and measured after 72 hrs by LC/MS/MS analysis; format: ADME, organism-based, Canis lupus familiaris; conditions: in vivo, read-out: Vdss
[29] = AUC (0 to infinity) in Cynomolgus monkey at 1 mg/kg,iv and measured after 72 hrs by LC/MS/MS analysis; format: ADME, organism-based, Macaca fascicularis; design: dose 1 mg/kg, time 72 hrs, route iv; conditions: in vivo
[30] = Unbound AUC (0 to infinity) in Cynomolgus monkey at 1 mg/kg,iv and measured after 72 hrs by LC/MS/MS analysis; format: ADME, organism-based, Macaca fascicularis; conditions: in vivo
[31] = Clearance in Cynomolgus monkey at 1 mg/kg,iv and measured after 72 hrs by LC/MS/MS analysis; format: ADME, organism-based, Macaca fascicularis; conditions: in vivo
[32] = Unbound clearance in Cynomolgus monkey at 1 mg/kg,iv and measured after 72 hrs by LC/MS/MS analysis; format: ADME, organism-based, Macaca fascicularis; conditions: in vivo
[33] = Half life in Cynomolgus monkey at 1 mg/kg,iv and measured after 72 hrs by LC/MS/MS analysis; format: ADME, organism-based, Macaca fascicularis; conditions: in vivo
[34] = Volume of distribution at steady state in Cynomolgus monkey at 1 mg/kg,iv and measured after 72 hrs by LC/MS/MS analysis; format: ADME, organism-based, Macaca fascicularis; conditions: in vivo, read-out: Vdss
[35] = Drug uptake in human hepatocytes at 37 degree C for 15 mins by LC/MS/MS analysis; format: ADME, cell-based, Hepatocyte; conditions: 0.25 h
[36] = Drug uptake in human hepatocytes at 4 degree C for 15 mins by LC/MS/MS analysis; format: ADME, cell-based, Hepatocyte; conditions: 0.25 h
[37] = Drug excretion in bile-duct cannulated Sprague-Dawley rat assessed as bile elimination at 15 mg/kg,po and measured after 72 hrs by LC/MS/MS analysis; format: ADME, organism-based; conditions: in vivo
[38] = Drug distribution in Sprague-Dawley rat liver at 10 mg/kg,po and measured upto 24 hrs by LC/MS/MS analysis; format: ADME, organism-based; conditions: in vivo
[39] = Drug distribution in Sprague-Dawley rat plasma at 10 mg/kg,po and measured upto 24 hrs by LC/MS/MS analysis; format: ADME, organism-based; conditions: in vivo

Chain of Cytochrome P450 2C9 (P11712 whole entry): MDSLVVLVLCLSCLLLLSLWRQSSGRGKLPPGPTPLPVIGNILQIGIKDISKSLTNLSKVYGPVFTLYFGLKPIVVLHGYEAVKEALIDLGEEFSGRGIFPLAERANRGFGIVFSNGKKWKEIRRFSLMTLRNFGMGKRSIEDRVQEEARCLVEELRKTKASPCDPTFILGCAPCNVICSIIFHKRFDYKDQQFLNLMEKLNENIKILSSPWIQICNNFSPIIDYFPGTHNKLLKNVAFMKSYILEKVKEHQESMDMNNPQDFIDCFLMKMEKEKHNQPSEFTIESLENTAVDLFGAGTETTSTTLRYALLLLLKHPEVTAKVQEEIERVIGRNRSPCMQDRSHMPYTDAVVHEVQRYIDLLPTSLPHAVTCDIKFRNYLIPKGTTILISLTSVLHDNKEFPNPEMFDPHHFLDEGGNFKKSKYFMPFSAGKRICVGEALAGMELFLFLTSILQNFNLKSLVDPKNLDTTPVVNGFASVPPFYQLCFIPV
Chain of Cytochrome P450 3A4 (P08684 whole entry): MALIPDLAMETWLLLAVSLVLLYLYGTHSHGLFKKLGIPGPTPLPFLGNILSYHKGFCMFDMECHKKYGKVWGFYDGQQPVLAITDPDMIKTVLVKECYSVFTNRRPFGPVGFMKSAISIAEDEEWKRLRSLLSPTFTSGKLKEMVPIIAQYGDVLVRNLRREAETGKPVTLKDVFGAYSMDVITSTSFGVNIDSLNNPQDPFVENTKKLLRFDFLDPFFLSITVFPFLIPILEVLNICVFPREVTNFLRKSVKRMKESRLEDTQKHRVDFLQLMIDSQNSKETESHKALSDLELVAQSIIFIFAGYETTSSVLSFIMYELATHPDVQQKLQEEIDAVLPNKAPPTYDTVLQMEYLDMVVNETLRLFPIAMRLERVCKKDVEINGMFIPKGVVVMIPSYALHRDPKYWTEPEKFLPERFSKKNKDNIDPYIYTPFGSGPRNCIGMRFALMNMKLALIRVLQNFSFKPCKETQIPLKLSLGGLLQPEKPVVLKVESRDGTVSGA
Chain of Cytochrome P450 2D6 (P10635 whole entry): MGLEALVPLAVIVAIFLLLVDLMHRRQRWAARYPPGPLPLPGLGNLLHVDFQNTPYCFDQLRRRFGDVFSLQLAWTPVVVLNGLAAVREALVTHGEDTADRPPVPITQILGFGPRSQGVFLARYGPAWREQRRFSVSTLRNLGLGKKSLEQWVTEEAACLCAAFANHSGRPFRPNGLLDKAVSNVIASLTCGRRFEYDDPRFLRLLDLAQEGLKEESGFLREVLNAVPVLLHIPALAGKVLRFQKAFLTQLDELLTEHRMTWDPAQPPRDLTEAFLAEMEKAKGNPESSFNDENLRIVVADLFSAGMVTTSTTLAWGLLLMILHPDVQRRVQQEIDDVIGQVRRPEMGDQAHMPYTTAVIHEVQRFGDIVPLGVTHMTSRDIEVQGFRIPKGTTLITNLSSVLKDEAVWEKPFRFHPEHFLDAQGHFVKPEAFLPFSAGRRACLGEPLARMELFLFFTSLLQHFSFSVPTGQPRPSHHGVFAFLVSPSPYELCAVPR

IC50 ([1]; Huh-7, 96 h): 0.004 µM
IC90 ([1]; Huh-7, time <= 96 hrs): 0.012 µM
IC50 [2]: 0.023 µM
fraction unbound at 6 h, 1 µM [4]: 0.008
AUC(0-inf) [5]: 1480 ng·h/mL
fAUC [6]: 11.8 ng·h/mL
clearance [7]: 16.1 mL/min/kg
CL free [8]: 2010 mL/min/kg
half-life [9]: 2.12 h
Vd [10]: 1.95 L/kg
AUC(0-inf) [11]: 3820 ng·h/mL
fAUC [12]: 30.6 ng·h/mL
Cmax [13]: 1040 ng/mL
bioavailability [14]: 97%
half-life [15]: 2.91 h
Stability [16]: Stable
Stability [17]: Stable
IC50 [18]: > 30 µM
IC50 [19]: > 30 µM
IC50 [20]: > 30 µM
EC50 [21]: > 30 µM
Emax at 24 h [22]: 10%
AUC(0-inf) [23]: 1450 ng·h/mL
fAUC [24]: 10.1 ng·h/mL
clearance [25]: 15 mL/min/kg
CL free [26]: 2140 mL/min/kg
half-life [27]: 1.39 h
Vd [28]: 1.59 L/kg
AUC(0-inf) [29]: 443 ng·h/mL
fAUC [30]: 4.43 ng·h/mL
clearance [31]: 33.5 mL/min/kg
CL free [32]: 3350 mL/min/kg
half-life [33]: 5.44 h
Vd [34]: 5.27 L/kg
Drug uptake [35]: Active
Drug uptake [36]: Active
Drug excretion [37]: Active
Drug uptake [38]: Active
Drug uptake [39]: Active
SMILES: CN1CCCC[C@H](N(c2cc(C#CC(C)(C)C)sc2C(=O)O)C(=O)[C@H]2CC[C@H](C)CC2)C1=O
CC50 [3]: > 20 µM
